From US20110311661A1, “Plant Extracts and Dermatological Uses Thereof” (priority 2003, published 2011)

Experiments:
human skin fibroblasts = test: Inhibition of dermal contraction, fibroblast-populated collagen I gel; format: cell-based; conditions: positive control at 50 μM; collagen gels up to 7 days
Experimental: The skin model comprises human skin fibroblasts imbedded in a collagen I matrix and provides an in vitro representation of dermal contraction resulting from tractional forces generated by fibroblasts.
The ability of exemplary plant extracts to inhibit dermal contraction was evaluated on human skin fibroblasts (Cascade Biologics, Portland, Oreg.). The cells were imbedded in a collagen I matrix to create a derm-like environment. Fibroblasts were grown in complete M106 to 80% confluence. Free-floating fibroblast-populated collagen gels were prepared in 24-well plates. […] The mix was kept on ice until distribution. The derm-like gels were allowed to polymerize for 1 hour at 37° C. in a humidified 5% CO2 atmosphere. After incubation, the gels were detached from the wells. […] FBS at a final concentration of 10% was added to each well. The plate was incubated for a maximum of 7 days at 37° C. in a humidified 5% CO2 atmosphere. All assays were performed in duplicate. Contraction was measured beginning at day 3. Contracting gels were digitally photographed and the gel areas were calculated using ImagePro software.

human skin keratinocytes = test: IL-8 release ELISA; format: cell-based; conditions: positive control at 2.5 μM; 48 hours
Experimental: The amount of Interleukin-8 (IL-8) released after exposure of keratinocytes to a plant extract, as described below, can be used to quantify any possible irritation reaction to the extract.
IL-8 release was evaluated in human skin keratinocytes (Cascade Biologics, Portland, Oreg.) using the Quantikine hIL-8 ELISA kit (R&D Systems, Minneapolis, Minn.). Keratinocytes were first grown in a 96-well plate using the complete M154 (M154+HKGS from Cascade Biologics). This media was also used as control. Phorbol 12-myristate 13-acetate (PMA) (Sigma-Aldrich Canada, Oakville, Ontario) at a concentration of 2.5 μM was used as a positive control. All tested plant extracts and the controls were diluted in complete M154 at a non-cytotoxic concentration (i.e. the concentration that provided 100% viability of keratinocytes as shown in Table 10). Cells were seeded into 96-well plates at a concentration of 8×10^3 cells/well in complete M154 media. Plates were incubated for 48 hours at 37° C. in a humidified 5% CO2 atmosphere. After incubation, the medium was removed and 200 μl of sample was added to the wells (all in duplicate). […]
After incubation, each well was washed four times with wash buffer. […] The plate was then gently mixed and the absorbance read at 450 nm on the Spectrafluor Plus plate reader (Tecan). The reading was taken within 15 minutes following addition of the stop solution. […]

SMILES | inhibition of contraction (human skin fibroblasts) | IL-8 release (human skin keratinocytes)
CNC(=O)[C@H](Cc1c[nH]c2ccccc12)NC(=O)[C@@H](CC(=O)NO)CC(C)C [GM6001] | limited, but not complete, inhibition of contraction | 
CCCCCCCCCCCCCC(=O)O[C@@H]1[C@@H](C)[C@@]2(O)[C@@H](C=C(CO)C[C@]3(O)C(=O)C(C)=C[C@@H]23)[C@@H]2C(C)(C)[C@]12OC(C)=O [PMA, Phorbol 12-myristate 13-acetate] |  | highest level of IL-8 release
